According to US12049662B2, “Rapid antimicrobial susceptibility testing by video-based object scattering intensity detection” (ARIZONA BOARD OF REGENTS ON BEHALF OF ARIZONA STATE …, priority 2021, dated 2024):

Assays:
[1] = system: E. coli ATCC 25922; assay: OSID-AST (object scattering intensity detection) with pure E. coli culture; format: cell-based; details: 32 μg/ml nitrofurantoin or 2 μg/ml ciprofloxacin, 5 representative tests
Method: The integrated object scattering intensity quantification enables detection of bacterial infection and AST for infection positive samples with an algorithm such as that depicted in FIG. 1C. Two test solutions are prepared from a patient's sample. One solution with medium and antibiotics for AST and the other one with medium only as control. To detect bacterial infection, the integrated object scattering intensity in the control group is quantified over time (e.g., the object scattering intensity is measured every 5 min with the 1 min video and for a total of 90 min). Clinical decision determination is based on integrated object scattering intensity. […] Otherwise, the sample is determined as infection negative. For antibiotic resistance detection, the integrated object intensity change over time in the raw sample (ΔIC=ICt−IC0) and in the antibiotic treated sample (ΔIABX=IABXt−IABX0) are calculated. […]
To establish the method, E. coli and S. saprophyticus cultures (see Materials and Methods) with and without antibiotics were imaged for bacteria growth measurements. […] The integrated object intensity of all cells was quantified with a 1 min duration video in every 5 min interval for a total of 90 min after real-time background removal processing. […] To accurately track E. coli growth, the averaged intensity of a 1 min video was quantified in every 5 min.

[2] = system: S. saprophyticus ATCC 15305; assay: OSID-AST (object scattering intensity detection) with pure S. saprophyticus culture; details: 2 μg/ml ciprofloxacin
From the text: ICt is the integrated object scattering intensity of samples without antibiotics at time t, IC0 is the initial intensity of the same sample. ΔIC=ICt−IC0 and ΔIABX=IABXt−IABX0, represent the integrated object scattering intensity change at time t for antibiotic-untreated (control) and -treated samples, respectively. […] For antibiotic resistance detection, the integrated object intensity change over time in the raw sample (ΔIC=ICt−IC0) and in the antibiotic treated sample (ΔIABX=IABXt−IABX0) are calculated. If the ratio between the two (ΔIABX/ΔIC) is above a resistant threshold (TR), or ΔIABX/ΔIC>TR, which indicates insufficient bacterial inhibition by the antibiotic, the sample is identified as resistant. If the ratio is at or below TR, bacteria growth is inhibited by the antibiotic, and the sample is defined as susceptible to that antibiotic.

Structure (SMILES) | time at which antibiotic susceptibility of E. coli cells can be determined (object intensity detection) [1] [min] | ΔIABX/ΔIC ([2]; 90 min, resistance threshold 0.5) | object intensity change of antibiotic treated sample ([2]; 90 min detection, control sample ~1.7 times) [times] | antibiotic susceptibility determination with OSID-AST ([2]; threshold 0.5)
O=C(O)c1cn(C2CC2)c2cc(N3CCNCC3)c(F)cc2c1=O [ciprofloxacin] | 60 | ~0.14 | ~1.1 | susceptible
O=C1CN(/N=C/c2ccc([N+](=O)[O-])o2)C(=O)N1 [nitrofurantoin] | 40 | – | – | –
